Data published in US9000008B2, “Amides of acetic and propionic acids” (Bayer Intellectual Property GmbH, priority 2002, dated 2015).
Where a name gives a salt, the structure may show the parent alone.

Target: α7 nAChR (Rattus norvegicus (Rat), UniProt Q05941)
Assay: [3H]-methyllycaconitine binding assay, rat brain membranes
Settings: inhibition of [3H]-methyllycaconitine binding to rat brain membranes; Ki=IC50/(1+L/KD)
Description: 1. Determination of the Affinity of Test Substances for α7 nAChR by Inhibition of [^3H]-Methyllycaconitine Binding to Rat Brain Membranes
The [^3H]-methyllycaconitine binding assay is a modification of the method described by Davies et al. (Neuropharmacol. 1999, 38, 679-690).
Rat brain tissue (hippocampus or whole brain) is homogenized in homogenization buffer (10% w/v). [0.32 M sucrose, 1 mM EDTA; 0.1 mM phenylmethylsulfonyl fluoride (PMSF), 0.01% (w/v) NaN3, pH 7.4, 4° C.] at 600 rpm in a glass homogenizer. The homogenate is centrifuged (1000×g, 4° C., 10 min) and the supernatant is removed. The pellet is resuspended (20% w/v) and the suspension is centrifuged (1000×g, 4° C., […]). The two supernatants are combined and centrifuged (15 000×g, 4° C., 30 min). The pellet obtained in this way is referred to as the P2 fraction.
The P2 pellet is washed twice with binding buffer (50 mM Tris-HCl, 1 mM MgCl2, 120 mM NaCl, 5 mM KCl, 2 mM CaCl2, pH 7.4), and centrifuged (15 000×g, 4° C., 30 min).
The P2 membranes are resuspended in binding buffer and incubated in a volume of 250 μl (amount of membrane protein 0.1-0.5 mg) in the presence of 1-5 nM [^3H]methyllycaconitine, 0.1% (w/v) BSA (bovine serum albumin) and various concentrations of the test substance at 21° C. for 2.5 h. The non-specific binding is determined by incubation in the presence of 1 μM α-bungarotoxin or 100 μM nicotine or 10 μM MLA (methyllycaconitine).
The incubation is stopped by adding 4 ml of PBS (20 mM Na2HPO4, 5 mM KH2PO4, 150 mM NaCl, pH 7.4, 4° C.) and filtering through type A/E glass fiber filters (Gelman Sciences) which have previously been placed in 0.3%. (v/v) polyethyleneimine (PEI) for 3 h. The filters are washed twice with 4 ml of PBS (4° C.), and the bound radioactivity is determined by scintillation measurement. All the assays are carried out in triplicate. The dissociation constant Ki of the test substance was determined from the IC50 of the compounds (concentration of the test substance at which 50% of the ligand bound to the receptor is displaced), the dissociation constant KD and the concentration L of [^3H]-methyllycaconitine using the equation Ki=IC50/(1+L/KD).

Sequence of α7 nAChR (Q05941 23-502): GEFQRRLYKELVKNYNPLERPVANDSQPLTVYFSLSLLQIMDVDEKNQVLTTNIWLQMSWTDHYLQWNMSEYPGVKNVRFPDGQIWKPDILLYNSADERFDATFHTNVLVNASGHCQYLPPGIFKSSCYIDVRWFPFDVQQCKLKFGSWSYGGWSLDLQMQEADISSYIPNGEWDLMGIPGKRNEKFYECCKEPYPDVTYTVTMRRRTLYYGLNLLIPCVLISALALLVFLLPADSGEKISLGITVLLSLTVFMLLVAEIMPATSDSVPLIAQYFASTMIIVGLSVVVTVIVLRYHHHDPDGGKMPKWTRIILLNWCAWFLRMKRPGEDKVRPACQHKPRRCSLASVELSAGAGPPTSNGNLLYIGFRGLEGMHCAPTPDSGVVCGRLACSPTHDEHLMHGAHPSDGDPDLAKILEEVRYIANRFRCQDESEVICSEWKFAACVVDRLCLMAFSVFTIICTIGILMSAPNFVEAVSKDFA

Compound	Ki [nM]
O=C(CC1CN2CCC1CC2)Nc1cc2cccc(Br)c2s1 (stereo not shown) [Example 1, 2-(1-Azabicyclo[2.2.2]oct-3-yl)-N-(7-bromo-1-benzothien-2-yl)acetamide hydrochloride]	120
O=C(CC1CN2CCC1CC2)Nc1ccc2cccnc2c1 (stereo not shown) [Example 3, 2-(1-Azabicyclo[2.2.2]oct-3-yl)-N-(7-quinolinyl)acetamide hydrochloride]	280
O=C(CC1CN2CCC1CC2)Nc1ccc2ccccc2c1 (stereo not shown) [Example 4, 2-(1-Azabicyclo[2.2.2]oct-3-yl)-N-(2-naphthyl)acetamide hydrochloride]	42
O=C(CC1CN2CCC1CC2)Nc1ccc2cccc([N+](=O)[O-])c2c1 (stereo not shown) [Example 5, 2-(1-Azabicyclo[2.2.2]oct-3-yl)-N-(8-nitro-2-naphthyl)acetamide hydrochloride]	170
